Laboratory results as given in US20170152239A1, “BENZAMIDE AND HETEROBENZAMIDE COMPOUNDS” (PFIZER INC., priority 2012, published 2017).
pIC50: −log10 of the molar value.

target: WT EZH2 (EZH2 4 protein complex: EZH2, EED, SUZ12, RbAp48) (Homo sapiens, UniProt O75530+Q09028+Q15022+Q15910); assay: WT EZH2 nucleosome assay; type: biochemical; conditions: nucleosome assay, 5 nM EZH2 4-protein complex, 1.5 μM SAM; read-out: WT EZH2 IC50
Protocol: Nucleosome Assay Protocol:
A. Compound preparation • 1. Prepare 10 mM stock solutions in 100% DMSO from solid material • 2. Serial dilute 10 mM compound stocks either 2 or 3-fold in 100% DMSO to generate compounds for 11 point dose response
B. Reagent preparation • 1. Prepare 1× assay buffer containing 100 mM Tris pH 8.5, 4 mM DTT and 0.01% Tween-20 • 2. Dilute purified HeLA oligonucleosomes and recombinant histone H1 (New England Biolabs) in assay buffer to 1.67×. • 3. Dilute EZH2 4 protein complex (EZH2, EED, SUZ12, RbAp48) to 3.5× in assay buffer • 4. Prepare 10×^3H SAM solution in assay buffer using 0.94 μCi/well of radioactive SAM (Perkin Elmer) and sufficient non-labeled SAM (Sigma) for 1.5 μM final concentration. • 5. Dilute TCA to 20% in DI water
C. Enzyme reaction • 1. Final reaction conditions are 5 nM EZH2 4-protein complex, 1.5 μM SAM, 25 μg/mL oligonucleosomes, 50 nM rH1 in a 50 μl reaction volume. • 2. Add 1 μl of diluted compound to the assay plate (96-well V-bottom polypropylene plates) or 1 μl of DMSO for control wells. • 3. Add 30 μl of nucleosomes to the assay plate • 4. Add 14 μl of EZH2 4 protein complex to the assay plate • 5. Add 5 μl of ^3H SAM to start the reaction. • 6. Stop the reaction after 60 minutes with the addition of 100 μl of 20% TCA • 7. Transfer 150 μl of quenched reaction into a prepared filterplate (Millipore #MSIPN4B10) • 8. Apply vacuum to the filterplate to filter the reaction mix through the membrane. • 9. Wash the filterplate with 8×200 μl of PBS, blot dry and dry in an oven for 30 minutes • 10. Add 50 μl of microscint-20 scintillation fluid (Perkin Elmer) to each well, wait 30 minutes and count on a liquid scintillation counter.
D. Data analysis • 1. IC50 values were determined by fitting the data to a 4-parameter IC50 equation using proprietary curve fitting software.
Wild type (WT) EZH2% Effect at 20 μM and IC50 values (μM) generated in WT EZH2 or EZH2PRC2 mutant Y641N nucleosome assays are provided in Table 3 below. A blank entry in the table indicates the data was not generated in that assay.

Sequence of WT EZH2 (EZH2 4 protein complex: EZH2, EED, SUZ12, RbAp48) (Q15910 whole entry): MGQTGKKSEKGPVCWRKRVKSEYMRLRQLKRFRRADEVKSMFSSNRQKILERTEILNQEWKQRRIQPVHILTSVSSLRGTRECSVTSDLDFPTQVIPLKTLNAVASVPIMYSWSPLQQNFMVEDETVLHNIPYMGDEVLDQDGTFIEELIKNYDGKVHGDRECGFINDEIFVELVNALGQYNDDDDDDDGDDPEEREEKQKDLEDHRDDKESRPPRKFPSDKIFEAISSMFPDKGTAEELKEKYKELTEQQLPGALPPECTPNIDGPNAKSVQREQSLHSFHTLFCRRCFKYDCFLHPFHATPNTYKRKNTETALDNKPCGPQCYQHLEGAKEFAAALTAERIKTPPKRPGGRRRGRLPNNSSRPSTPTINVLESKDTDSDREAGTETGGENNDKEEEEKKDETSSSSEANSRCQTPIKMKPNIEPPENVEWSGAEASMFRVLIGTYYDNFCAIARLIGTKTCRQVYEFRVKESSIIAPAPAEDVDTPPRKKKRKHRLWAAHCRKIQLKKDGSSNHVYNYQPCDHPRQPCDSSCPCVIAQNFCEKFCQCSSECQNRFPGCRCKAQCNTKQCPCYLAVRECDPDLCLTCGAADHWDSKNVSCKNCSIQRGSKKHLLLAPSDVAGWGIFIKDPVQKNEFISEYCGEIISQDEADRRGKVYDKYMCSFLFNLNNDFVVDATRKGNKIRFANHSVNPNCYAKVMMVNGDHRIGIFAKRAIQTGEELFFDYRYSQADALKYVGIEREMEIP
Sequence of WT EZH2 (EZH2 4 protein complex: EZH2, EED, SUZ12, RbAp48) (O75530 whole entry partner): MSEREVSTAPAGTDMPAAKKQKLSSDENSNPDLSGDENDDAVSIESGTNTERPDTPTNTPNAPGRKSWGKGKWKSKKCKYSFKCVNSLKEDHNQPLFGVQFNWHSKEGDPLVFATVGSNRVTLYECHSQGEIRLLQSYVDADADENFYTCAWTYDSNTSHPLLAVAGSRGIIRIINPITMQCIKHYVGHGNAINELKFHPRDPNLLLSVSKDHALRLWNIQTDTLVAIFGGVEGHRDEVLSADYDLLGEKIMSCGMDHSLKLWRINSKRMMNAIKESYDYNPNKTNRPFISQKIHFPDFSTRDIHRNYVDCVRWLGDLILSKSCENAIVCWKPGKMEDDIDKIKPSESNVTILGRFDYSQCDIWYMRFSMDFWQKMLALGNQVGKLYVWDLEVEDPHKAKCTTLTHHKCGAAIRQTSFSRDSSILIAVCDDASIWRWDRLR
Sequence of WT EZH2 (EZH2 4 protein complex: EZH2, EED, SUZ12, RbAp48) (Q15022 whole entry partner): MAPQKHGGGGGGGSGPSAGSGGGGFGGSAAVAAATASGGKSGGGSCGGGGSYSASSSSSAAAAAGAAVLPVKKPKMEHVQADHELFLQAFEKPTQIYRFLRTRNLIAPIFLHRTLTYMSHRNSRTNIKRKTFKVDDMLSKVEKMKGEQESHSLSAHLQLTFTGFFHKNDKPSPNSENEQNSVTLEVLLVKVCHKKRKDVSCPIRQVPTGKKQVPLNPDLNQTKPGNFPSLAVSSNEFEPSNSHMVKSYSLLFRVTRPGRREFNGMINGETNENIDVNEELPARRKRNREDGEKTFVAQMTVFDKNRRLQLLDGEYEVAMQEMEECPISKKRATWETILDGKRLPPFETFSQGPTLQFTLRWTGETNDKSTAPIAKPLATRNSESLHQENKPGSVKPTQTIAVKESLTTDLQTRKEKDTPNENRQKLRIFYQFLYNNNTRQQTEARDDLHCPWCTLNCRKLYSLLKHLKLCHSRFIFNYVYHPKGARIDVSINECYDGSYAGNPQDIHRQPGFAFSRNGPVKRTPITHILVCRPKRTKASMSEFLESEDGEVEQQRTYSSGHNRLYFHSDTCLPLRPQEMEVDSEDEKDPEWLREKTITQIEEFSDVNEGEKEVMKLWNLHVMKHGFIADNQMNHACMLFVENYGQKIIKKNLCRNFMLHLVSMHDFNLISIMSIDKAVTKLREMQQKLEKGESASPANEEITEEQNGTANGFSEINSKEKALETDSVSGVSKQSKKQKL
Sequence of WT EZH2 (EZH2 4 protein complex: EZH2, EED, SUZ12, RbAp48) (Q09028 whole entry partner): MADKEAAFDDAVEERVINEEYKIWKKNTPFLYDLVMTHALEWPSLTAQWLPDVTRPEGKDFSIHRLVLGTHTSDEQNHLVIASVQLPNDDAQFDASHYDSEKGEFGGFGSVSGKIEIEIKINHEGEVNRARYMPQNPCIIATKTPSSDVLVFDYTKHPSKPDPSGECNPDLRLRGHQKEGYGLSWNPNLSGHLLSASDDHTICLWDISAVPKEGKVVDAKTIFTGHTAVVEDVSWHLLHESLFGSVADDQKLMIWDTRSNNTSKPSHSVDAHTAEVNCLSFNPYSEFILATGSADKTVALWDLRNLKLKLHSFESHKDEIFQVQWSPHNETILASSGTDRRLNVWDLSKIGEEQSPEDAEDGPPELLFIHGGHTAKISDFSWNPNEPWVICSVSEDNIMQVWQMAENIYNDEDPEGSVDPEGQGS

Point of comparison: `Cc1cc(C)c(CNC(=O)c2cc(Cl)cc(-n3nnnc3C)c2C)c(=O)[nH]1` [Example 52, 5-chloro-N-[(4,6-dimethyl-2-oxo-1,2-dihydropyridin-3-yl)methyl]-2-methyl-3-(5-methyl-1H-tetrazol-1-yl)benzamide], pIC50 5.61. Against it:
- Cc1cc(C)c(CNC(=O)c2ncnc(N3CCCC3C3CC3)c2C)c(=O)[nH]1 (centres unmarked) [Example 122, 6-(2-cyclopropyl-pyrrolidin-1-yl)-N-[(4,6-dimethyl-2-oxo-1,2-dihydropyridin-3-yl)methyl]-5-methylpyrimidine-4-carboxamide] — 1.25 log units lower, 4.36
- Cc1cc(C)c(CNC(=O)c2cc(-c3cnc(N4C5CCC4COC5)nc3)cc(-c3c(C)cnn3C)c2C)c(=O)[nH]1 [Example 23, N-[(4,6-dimethyl-2-oxo-1,2-dihydropyridin-3-yl)methyl]-3-(1,4-dimethyl-1H-pyrazol-5-yl)-2-methyl-5-{2-[3-oxa-8-azabicyclo[3.2.1]oct-8-yl]pyrimidin-5-yl}benzamide] — 2.21 log units higher, 7.82
- Cc1cc(C)c(CNC(=O)c2cccc(-c3c(C)n[nH]c3C)c2C)c(=O)[nH]1 [Example 3, N-[(4,6-dimethyl-2-oxo-1,2-dihydropyridin-3-yl)methyl]-3-(3,5-dimethyl-1H-pyrazol-4-yl)-2-methylbenzamide] — 0.43 log units higher, 6.04
- Cc1noc([C@H]2CCCN2c2ncnc(C(=O)NCc3c(C)cc(C)[nH]c3=O)c2C)n1 [Example 146, N-[(4,6-dimethyl-2-oxo-1,2-dihydropyridin-3-yl)methyl]-5-methyl-6-[(2R)-2-(3-methyl-1,2,4-oxadiazol-5-yl)pyrrolidin-1-yl]pyrimidine-4-carboxamide] — lower, < 3.70
- Cc1cc(C)c(CNC(=O)c2cccc(-c3c(C)ncn3C)c2C)c(=O)[nH]1 [Example 4, 3-(1,4-dimethyl-1H-imidazol-5-yl)-N-[(4,6-dimethyl-2-oxo-1,2-dihydropyridin-3-yl)methyl]-2-methylbenzamide] — 1.03 log units higher, 6.64
- Cc1cc(C)c(CNC(=O)c2cc(Cl)cc(-c3c(C)cnn3C)c2C)c(=O)[nH]1 [Example 7, 5-chloro-N-[(4,6-dimethyl-2-oxo-1,2-dihydropyridin-3-yl)methyl]-3-(1,4-dimethyl-1H-pyrazol-5-yl)-2-methylbenzamide] — 1.05 log units higher, 6.66
- Cc1cc(C)c(CNC(=O)c2cccc(-c3ccnn3C)c2Cl)c(=O)[nH]1 [Example 9, 2-chloro-N-[(4,6-dimethyl-2-oxo-1,2-dihydropyridin-3-yl)methyl]-3-(1-methyl-1H-pyrazol-5-yl)benzamide] — 0.54 log units higher, 6.15
- Cc1cc(C)c(CNC(=O)c2cc(-c3cnn(C)c3)cc(-c3ccnn3C)c2C)c(=O)[nH]1 [Example 18, N-[(4,6-dimethyl-2-oxo-1,2-dihydropyridin-3-yl)methyl]-2-methyl-5-(1-methyl-1H-pyrazol-4-yl)-3-(1-methyl-1H-pyrazol-5-yl)benzamide] — 1.24 log units higher, 6.85
- Cc1cc(C)c(CNC(=O)c2nc(-c3cncnc3)nc(N3CCC[C@@H]3C)c2C)c(=O)[nH]1 [Example 44, N-[(4,6-dimethyl-2-oxo-1,2-dihydropyridin-3-yl)methyl]-5-methyl-6-[(2S)-2-methylpyrrolidin-1-yl]-2,5′-bipyrimidine-4-carboxamide] — 0.24 log units higher, 5.85
- Cc1cc(C)c(CNC(=O)c2nccc(-c3ccnn3C)c2C)c(=O)[nH]1 [Example 110, N-[(4,6-dimethyl-2-oxo-1,2-dihydropyridin-3-yl)methyl]-3-methyl-4-(1-methyl-1H-pyrazol-5-yl)pyridine-2-carboxamide] — 0.98 log units lower, 4.63
- Cc1cc(C)c(CNC(=O)c2nc(-c3ccc(N)nc3)nc(N3CCC[C@@H]3C)c2C)c(=O)[nH]1 [Example 45, 2-(6-aminopyridin-3-yl)-N-[(4,6-dimethyl-2-oxo-1,2-dihydropyridin-3-yl)methyl]-5-methyl-6-[(2S)-2-methylpyrrolidin-1-yl]pyrimidine-4-carboxamide] — 0.21 log units higher, 5.82
- Cc1cc(C)c(CNC(=O)c2ncnc(N3CC[C@H]4C[C@H]43)c2C)c(=O)[nH]1 [Example 136, 6-[(1R,5S)-2-azabicyclo[3.1.0]hex-2-yl]-N-[(4,6-dimethyl-2-oxo-1,2-dihydropyridin-3-yl)methyl]-5-methyl-pyrimidine-4-carboxamide] — 1.82 log units lower, 3.79
- Cc1cc(C(F)(F)F)c(CNC(=O)c2cccc(-c3ccnn3C)c2Cl)c(=O)[nH]1 [Example 121, 2-chloro-N-{[6-methyl-2-oxo-4-(trifluoromethyl)-1,2-dihydropyridin-3-yl]methyl}-3-(1-methyl-1H-pyrazol-5-yl)benzamide] — 1.23 log units lower, 4.38
- CCc1nncn1-c1cc(Cl)cc(C(=O)NCc2c(C)cc(C)[nH]c2=O)c1C [Example 61, 5-chloro-N-[(4,6-dimethyl-2-oxo-1,2-dihydropyridin-3-yl)methyl]-3-(3-ethyl-4H-1,2,4-triazol-4-yl)-2-methylbenz-amide] — 0.23 log units lower, 5.38
- Cc1cc(C)c(CNC(=O)c2nc(Cl)nc(N3C4CCC3CC4)c2C)c(=O)[nH]1 [Example 40, 6-(7-azabicyclo[2.2.1]hept-7-yl)-2-chloro-N-[(4,6-dimethyl-2-oxo-1,2-dihydropyridin-3-yl)methyl]-5-methylpyrimi-dine-4-carboxamide] — 0.38 log units higher, 5.99
- Cc1cc(C)c(CNC(=O)c2nc(O[C@H]3CCOC3)nc(-c3ccnn3C)c2C)c(=O)[nH]1 [Example 114, N-[(4,6-dimethyl-2-oxo-1,2-dihydropyridin-3-yl)methyl]-5-methyl-6-(1-methyl-1H-pyrazol-5-yl)-2-[(3S)-tetrahydro-furan-3-yloxy]pyrimidine-4-carboxamide] — 1.06 log units lower, 4.55
- CCn1ncc(C)c1-c1cccc(C(=O)NCc2c(C)c(Cl)c(C)[nH]c2=O)c1C [Example 148, N-[(5-chloro-4,6-dimethyl-2-oxo-1,2-dihydropyridin-3-yl)methyl]-3-(1-ethyl-4-methyl-1H-pyrazol-5-yl)-2-methyl-benzamide] — lower, < 3.70
- CC(C)Oc1cccc(C(=O)NCc2ccc[nH]c2=O)c1Cl [Example 139, 2-chloro-3-isopropoxy-N-[(2-oxo-1,2-dihydropyridin-3-yl)methyl]benz-amide] — lower, < 3.70
- Cc1cc(C)c(CNC(=O)c2nc(OCCO)nc(-c3ccnn3C)c2C)c(=O)[nH]1 [Example 90, N-[(4,6-dimethyl-2-oxo-1,2-dihydropyridin-3-yl)methyl]-2-(2-hydroxyethoxy)-5-methyl-6-(1-methyl-1H-pyrazol-5-yl)pyrimidine-4-carboxamide] — 0.69 log units lower, 4.92
- Cc1cc(C)c(CNC(=O)c2ncnc(N3CC[C@H](C)C3)c2C)c(=O)[nH]1 [Example 107, N-[(4,6-dimethyl-2-oxo-1,2-dihydropyridin-3-yl)methyl]-5-methyl-6-[(3S)-3-methylpyrrolidin-1-yl]pyrimidine-4-carboxamide] — 0.95 log units lower, 4.66
- Cc1cc(C)c(CNC(=O)c2nc(OCCN3CCC(F)(F)CC3)nc(-c3ccnn3C)c2C)c(=O)[nH]1 [Example 98, 2-[2-(4,4-difluoropiperi-din-1-yl)ethoxy]-N-[(4,6-dimethyl-2-oxo-1,2-dihydropyridin-3-yl)methyl]-5-methyl-6-(1-methyl-1H-pyrazol-5-yl)pyrimidine-4-carboxamide] — 0.85 log units lower, 4.76
- COc1ccc(OC)c(C(=O)NCc2c(C)cc(C)[nH]c2=O)c1OC [Example 140, N-[(4,6-dimethyl-2-oxo-1,2-dihydropyridin-3-yl)methyl]-2,3,6-trimethoxy-benzamide] — lower, < 3.70
- Cc1cc(C)c(CNC(=O)c2ncnc(N3CCCC3C(C)C)c2C)c(=O)[nH]1 (centres unmarked) [Example 112, N-[(4,6-dimethyl-2-oxo-1,2-dihydropyridin-3-yl)methyl]-6-(2-isopropylpyrroli-din-1-yl)-5-methylpyrimidine-4-carboxamide] — 1.01 log units lower, 4.60
- Cc1cc(C)c(CNC(=O)c2nc(-c3cncnc3)nc(-c3ccnn3C)c2C)c(=O)[nH]1 [Example 80, N-[(4,6-dimethyl-2-oxo-1,2-dihydropyridin-3-yl)methyl]-5-methyl-6-(1-methyl-1H pyrazol-5-yl)-2,5′-bipyrimidine-4-carboxamide] — 0.49 log units lower, 5.12
- Cc1cc(C)c(CNC(=O)c2nc(OCCN3CC[C@H](F)C3)nc(-c3ccnn3C)c2C)c(=O)[nH]1 [Example 101, N-[(4,6-dimethyl-2-oxo-1,2-dihydropyridin-3-yl)methyl]-2-{2-[(3S)-3-fluoropyrrolidin-1-yl]ethoxy}-5-methyl-6-(1-methyl-1H-pyrazol-5-yl)pyrimidine-4-carboxamide] — 0.87 log units lower, 4.74
